Experimental data: US5057324A, “Kallikrein inhibitor substance, a process for preparation and pharmaceutical compositions thereof” (priority 1987, dated 1991)

System: formation of kallikrein
Test: Inhibitory action against the formation of kallikrein (kaolin-activated human plasma, synthetic substrate)
Assay type: biochemical
Details: human plasma diluted with saline, kaolin activation, substrate D-Pro-Phe-Arg-p-nitroaniline
Protocol: Kallikrein is a group of proteinase widely distributed in the plasma and tissues of various kinds of animals. […] The inhibitory action of the substance of the present invention against the formation of kallikrein was assayed according to the method described in Example 1 of European Patent Publication No.0259857. That is, in the primary reaction, kaolin suspension was added to the human plasma diluted with physiological saline. After a certain while, Lima Bean trypsin inhibitor was added to terminate the activation of kallikrein. In the second reaction, the amount of kallikrein formed in the primary reaction was measured by the use of a synthetic substrate specific to kallikrein, such as D-Pro-Phe-Arg-p-nitroaniline. In the above reaction system, the activity of the test substance to inhibit the formation of kallikrein was measured by mixing the test substance with the human plasma prior to addition of kaolin suspension.

CC(C(=O)O)c1cccc(C(=O)c2ccccc2)c1 (stereo not shown) [Ketoprofen]
IC50 = Concentration 50% inhibiting the formation of kallikrein: 700 µg/mL
